Results taken from patent US11111238B2, “Coumarin derivatives, processes for their preparation and uses thereof for the treatment of cancer” (Lead Discovery Center GmbH, priority 2017, dated 2021).

Experiments:
[1] = tested on: mitochondrial transcription (7S RNA) in HeLa cells; experiment: Quantitative real time-PCR assay of inhibition of mitochondrial transcription (cellular qPCR assay IMT); format: cell-based; details: Homo sapiens, 4 h compound incubation, qRT-PCR according to Example 5, activity class
Summary of the method: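 HeLa cells were exposed 4 h to compound dilution series or DMSO. Mitochondrial 7S RNA, with POLRMT for nuclear transcription, was measured by TaqMan qRT-PCR, normalised to TBP. Biological triplicates were analysed by ΔΔCt and expressed as Rq % (2^-ΔΔCt).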

[2] = tested on: NCI-H23 (lung); experiment: CellTiter GLO viability assay, NCI-H23; format: cell-based
Protocol: (§1) The CellTiter-Glo Luminescent Cell Viability Assay (Promega) is a homogeneous method of determining the number of viable cells in culture. It is based on quantification of ATP, indicating the presence of metabolically active cells.
(§2) Cells were seeded on day 1 at cell numbers that assure assay linearity and optimal signal intensity. After incubation for 3 h in humidified chambers at 37° C./5% CO2 compounds/DMSO were added at different concentrations. […] Cells treated with the compound vehicle DMSO were used as positive controls and cells treated with 10 μM Staurosporine served as negative controls. […] Thereon, mixture and assay plates were equilibrated at room temperature for 20 min. Equal volumes of the reagent-medium-mixture was added to the volume of culture medium present in each well.
(§3) The plates were mixed at ˜200 rpm for 2 minutes on an orbital shaker. The microplates were then incubated at room temperature for 10 minutes for stabilization of the luminescent signal. Following incubation the luminescence is recorded on a Victor microplate reader (Perkin Elmer) using 200 ms integration time. The data were then analyzed with Excel using the XLFIT Plugin (dose response Fit 205) for IC50-determination. As quality control the Z′-factor was calculated from 16 positive and negative control values. Only assay results showing a Z′-factor≥0.5 were used for further analysis.

[3] = tested on: HEC-59 (endometrial); experiment: CellTiter GLO viability assay, HEC-59; format: cell-based; details: 144 h, read-out: IC50 (μM) incubation time 144 h
Protocol: as §1, §2, §3

[4] = tested on: HRT-18 (colon); experiment: CellTiter GLO viability assay, HRT-18; format: cell-based; details: Homo sapiens, 144 h, read-out: IC50 (μM) incubation time 144 h
Protocol: as §1, §2, §3

[5] = tested on: CA-46 (lymphoma); experiment: CellTiter GLO viability assay, CA-46; format: cell-based; details: Homo sapiens, CA46, 144 h, read-out: IC50 (μM) incubation time 144 h
Protocol: as §1
as §2, with “Cells were seeded on day 1 at cell numbers that assure assay linearity and optimal signal intensity.” left out
as §3

[6] = tested on: SW403 (colon); experiment: CellTiter GLO viability assay, SW403; format: cell-based; details: Homo sapiens, SW-403, 144 h, read-out: IC50 (μM) incubation time 144 h
Protocol: as §1
as §2, with “Cells were seeded on day 1 at cell numbers that assure assay linearity and optimal signal intensity.” left out
as §3

[7] = tested on: human A2780 ovary carcinoma xenograft; experiment: Therapeutic effect on human A2780 ovary carcinoma xenograft in nude mice; format: in vivo, nude mice (female NMRI: nu/nu)
Protocol: In addition to the number of mice needed to build the groups necessary for the experiment, 8 additional mice were transplanted to have a sufficient number of satellite animals to improve stratification. Mice were stratified at day 7, when the mean tumor volume (TV) was 0.213±0.061 cm^3, (median TV=0.206 cm^3) into groups A-D with 8 mice each. 8 mice were excluded because of their tumor size.
Immediately before use, compound 14 was dissolved to obtain an injection solution to be sufficient for one week of treatment. The treatments were indicated as described in Table 6. […] Mean tumor […]±S.D. (RTV) was calculated. […] Mice of groups A, C and D were sacrificed at day 34 (QDx28 for times 28. Gross autopsy was performed from all mice.

[8] = tested on: NCI-H1299 (lung); experiment: CellTiter GLO viability assay, NCI-H1299; format: cell-based; details: Homo sapiens, 144 h, read-out: IC50 (μM) incubation time 144 h
Protocol: as §1, §2, §3

[9] = tested on: human DLD-1 colon carcinoma xenograft; experiment: Therapeutic effect on human DLD-1 colon carcinoma xenograft in nude mice
Protocol: DLD-1 colon carcinoma cells (5×10^6 cells in 100 μL of PBS/Matrigel), isolated during exponential growth phase from in vitro cell culture, were transplanted s.c. into each female BALB/c nude mouse at day 0. Mice were kept under strictly controlled and standardized barrier conditions in IVC.
Sorafenib) (Nexavar®, which is an approved multi-kinase inhibitor/cytostatic from Bayer A G, was used as a positive control. Body weight and tumor volume (TV) were monitored two to three times per week.
Mice of groups 3, 4 and 5 were treated again at the end of the study period and blood samples were taken to generate plasma 1 h prior and 1 h post treatment. In addition, tumor and tissue samples were isolated, divided into two parts and snap frozen in liquid nitrogen. Mice of groups 1-5 were sacrificed at day 39. Gross autopsy was performed from all mice.

[10] = tested on: SW948 (colon); experiment: CellTiter GLO viability assay, SW948; format: cell-based; details: Homo sapiens, 144 h, read-out: IC50 (μM) incubation time 144 h
Protocol: as §1, §2, §3

[11] = tested on: SW48 (colon); experiment: CellTiter GLO viability assay, SW48; format: cell-based; details: Homo sapiens, 144 h, read-out: IC50 (μM) incubation time 144 h
Protocol: as §1, §2, §3

C[C@@H](Oc1ccc2c(-c3ccc(F)cc3Cl)cc(=O)oc2c1)C(=O)N1CCC[C@H](C(=O)O)C1 [Compound 14, (3S)-1-[(2R)-2-[4-(2-chloro-4-fluoro-phenyl)-2-oxo-chromen-7-yl]oxypropanoyl]piperidine-3-carboxylic acid]
IC50 [1]: < 10 nM | IC50 ([2]; Homo sapiens, NCI-H23 (lung), 144 h, read-out: IC50 (μM) incubation time 144 h): 1 to 10 µM | sensitivity of the cell line (in words) ([2]; NCl-H23): moderate sensitivity | IC50 [3]: > 10 µM | IC50 [4]: ≤ 0.1 µM | IC50 [5]: ≤ 0.1 µM | IC50 [6]: ≤ 0.1 µM | Mean tumor weight ([7]; 30 mg/kg p.o. QD × 21): 0.629 g | RTV (relative tumor volume at day 27 compared to D 7) ([7]; 30 mg/kg p.o. QD × 21): 6.8 | Tumor weight, % of control ([7]; 30 mg/kg p.o. QD × 21): (75.5) % | Tumor growth inhibition (D 27): Mean TV ([7]; 30 mg/kg p.o. QD × 21, day 27): 1.300 cm^3 | optimum T/C value ([7]; 50 mg/kg): 88.3% | optimum T/C value ([7]; 100 mg/kg): 59.2% | Mean tumor weight ([7]; 100 mg/kg p.o. QD × 28): 0.491 g | RTV (relative tumor volume at day 27 compared to D 7) ([7]; 100 mg/kg p.o. QD × 28): 5.1 | Tumor weight, % of control ([7]; 100 mg/kg p.o. QD × 28): (60,0) % | Tumor growth inhibition (D 27): Mean TV ([7]; 100 mg/kg p.o. QD × 28, day 27): 0.715 cm^3 | optimum T/C value ([7]; 200 mg/kg): 24.9% | Mean tumor weight ([7]; 200 mg/kg p.o. QD × 28): 0.141 g | RTV (relative tumor volume at day 27 compared to D 7) ([7]; 200 mg/kg p.o. QD × 28): 1.1 | Tumor weight, % of control ([7]; 200 mg/kg p.o. QD × 28): (16.99) % | Tumor growth inhibition (D 27): Mean TV ([7]; 200 mg/kg p.o. QD × 28, day 27): 0.232 cm^3 | Tolerability ([7]; A2780 xenograft, p.o. QD): well tolerated | Therapeutic effect: tumor growth inhibition ([7]; all doses): dose-dependent tumor growth inhibition | Therapeutic effect: tumor growth inhibition ([7]; higher doses (100 and 200 mg/kg)): significantly more active regarding tumor growth inhibition | Therapeutic effect: tumor growth inhibition ([7]; lowest dose (50 mg/kg)): no significant effect | Autopsy at the end ([7]; mouse, in vivo): no abnormal observations | signs of toxicity ([7]; mouse, in vivo, po): no signs of toxicity were observed | IC50 [8]: 0.1 to 1 µM | Tolerability ([9]; DLD-1 xenograft, p.o. QD × 28 days): well tolerated | Therapeutic effect: tumor growth inhibition ([9]; all doses): dose-dependent tumor growth inhibition | Therapeutic effect: tumor growth inhibition ([9]; lowest dose (50 mg/kg)): minor effect | IC50 [10]: 0.1 to 1 µM | IC50 [11]: 0.1 to 1 µM
